pIC50: −log10 of the molar value.
Key:
hT2R63 = assay: hT2R panel inhibition, transient HEK293 G16g44, agonist Caffeine 1 mM or Andrographolide 100 μM; format: cell-based, human; settings: compound at 25 μM; receptor activated to EC80 with the corresponding agonist
How it was run: (§1)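 Here, inhibition reflects how much the test compound lowers activation of a transiently expressed human bitter receptor stimulated at EC80. Twenty-two such receptors were tested separately.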

hT2R5 = hT2R5 (Homo sapiens (Human), UniProt Q9NYW4); assay: hT2R panel inhibition, transient HEK293 G16g44, agonist Picoline 10 mM; format: cell-based; settings: HEK293, compound at 25 μM; receptor activated to EC80 with the corresponding agonist; read-out: screening result against bitter receptor 5
Sequence of hT2R5 (Q9NYW4 whole entry): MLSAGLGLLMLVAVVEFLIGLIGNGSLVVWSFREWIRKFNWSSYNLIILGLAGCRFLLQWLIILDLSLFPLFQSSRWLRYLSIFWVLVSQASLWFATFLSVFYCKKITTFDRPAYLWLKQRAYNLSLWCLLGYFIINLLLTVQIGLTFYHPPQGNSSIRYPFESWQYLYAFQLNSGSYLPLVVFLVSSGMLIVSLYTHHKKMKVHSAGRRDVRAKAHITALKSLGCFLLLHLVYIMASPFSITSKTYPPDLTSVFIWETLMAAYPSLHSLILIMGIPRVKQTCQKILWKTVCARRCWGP
How it was run: as §1

hT2R64 = hT2R64 (Homo sapiens (Human), UniProt P59538); assay: hT2R panel inhibition, transient HEK293 G16g44, agonist Aristolochic Acid 1 μM; format: cell-based; settings: HEK293, compound at 25 μM; receptor activated to EC80 with the corresponding agonist; read-out: screening result against bitter receptor 64
Sequence of hT2R64 (P59538 whole entry): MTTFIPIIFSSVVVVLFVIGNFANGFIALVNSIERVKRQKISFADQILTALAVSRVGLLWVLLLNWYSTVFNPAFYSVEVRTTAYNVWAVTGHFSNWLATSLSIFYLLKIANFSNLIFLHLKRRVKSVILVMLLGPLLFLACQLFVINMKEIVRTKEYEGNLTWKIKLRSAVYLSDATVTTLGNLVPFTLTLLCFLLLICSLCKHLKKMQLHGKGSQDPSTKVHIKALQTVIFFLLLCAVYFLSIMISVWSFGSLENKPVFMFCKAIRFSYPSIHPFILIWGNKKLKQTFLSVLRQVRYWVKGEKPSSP
How it was run: as §1

hT2R9 = hT2R9 (Homo sapiens (Human), UniProt Q9NYW1); assay: hT2R panel inhibition, transient HEK293 G16g44, agonist Ofloxacin 1 mM; format: cell-based; settings: HEK293, compound at 25 μM; receptor activated to EC80 with the corresponding agonist; read-out: screening result against bitter receptor 9
Sequence of hT2R9 (Q9NYW1 whole entry): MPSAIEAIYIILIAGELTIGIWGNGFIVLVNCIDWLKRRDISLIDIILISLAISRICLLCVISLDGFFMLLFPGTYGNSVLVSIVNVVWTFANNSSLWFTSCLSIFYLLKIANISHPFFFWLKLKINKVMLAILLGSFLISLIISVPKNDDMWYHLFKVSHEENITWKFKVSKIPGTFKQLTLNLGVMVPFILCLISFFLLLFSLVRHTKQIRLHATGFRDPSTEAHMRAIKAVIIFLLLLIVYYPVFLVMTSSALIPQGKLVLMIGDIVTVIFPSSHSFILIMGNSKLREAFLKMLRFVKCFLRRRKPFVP
How it was run: as §1

hT2R44 = assay: hT2R panel inhibition, transient HEK293 G16g44, agonist Denatonium 0.5 μM; format: cell-based, human; settings: compound at 25 μM; receptor activated to EC80 with the corresponding agonist
How it was run: as §1

hT2R54 = assay: hT2R panel inhibition, transient HEK293 G16g44, agonist Ranitidine 5 mM; format: cell-based, human; settings: compound at 25 μM; receptor activated to EC80 with the corresponding agonist
How it was run: as §1

hT2R3 = hT2R3 (Homo sapiens (Human), UniProt Q9NYW6); assay: hT2R panel inhibition, transient HEK293 G16g44, agonist Chloroquine pH6.5 50 μM; format: cell-based; settings: HEK293, compound at 25 μM; receptor activated to EC80 with the corresponding agonist; read-out: screening result against bitter receptor 3
Sequence of hT2R3 (Q9NYW6 whole entry): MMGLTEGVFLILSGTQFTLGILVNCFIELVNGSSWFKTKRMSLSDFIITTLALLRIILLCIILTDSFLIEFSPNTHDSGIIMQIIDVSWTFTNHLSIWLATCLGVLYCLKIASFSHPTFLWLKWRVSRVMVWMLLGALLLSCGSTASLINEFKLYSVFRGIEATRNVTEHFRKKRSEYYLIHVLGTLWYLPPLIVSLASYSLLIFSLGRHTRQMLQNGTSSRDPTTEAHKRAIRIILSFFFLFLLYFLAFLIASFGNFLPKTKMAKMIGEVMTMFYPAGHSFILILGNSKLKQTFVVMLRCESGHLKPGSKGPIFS
How it was run: as §1

hT2R8 = hT2R8 (Homo sapiens (Human), UniProt Q9NYW2); assay: hT2R panel inhibition, transient HEK293 G16g44, agonist Andrographolide 0.5 mM; format: cell-based; settings: HEK293, compound at 25 μM; receptor activated to EC80 with the corresponding agonist; read-out: screening result against bitter receptor 8
Sequence of hT2R8 (Q9NYW2 whole entry): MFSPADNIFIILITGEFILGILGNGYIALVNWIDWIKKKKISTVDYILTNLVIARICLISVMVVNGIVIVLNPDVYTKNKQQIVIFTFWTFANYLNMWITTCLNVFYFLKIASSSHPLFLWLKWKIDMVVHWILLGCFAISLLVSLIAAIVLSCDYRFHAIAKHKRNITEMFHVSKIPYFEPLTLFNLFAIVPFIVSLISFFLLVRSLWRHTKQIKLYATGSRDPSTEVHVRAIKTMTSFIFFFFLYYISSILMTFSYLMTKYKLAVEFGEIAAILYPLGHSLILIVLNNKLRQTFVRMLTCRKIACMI
Method: Specifically, in order to evaluate the inhibitory selectivity of the Compound C compound, this compound was tested against 22 human T2Rs which were deorphaned by Senomyx. These receptors and the bitter ligands that activate these human T2Rs are reported in earlier patent applications which are incorporated by reference herein. These 22 human T2Rs are hT2R1, 3, 4, 5, 7, 8, 9, 10, 13, 14, 16, 44, 51, 54, 55, 61, 63, 64, 65, 67, 71 and 75. The amino acid and nucleic acid sequences of all of these T2Rs may be found in these earlier patent applications. These human T2Rs were each individually transiently transfected into HEK293 cells that stably express the promiscuous G protein G16g44 and functional assays were effected using these receptors as disclosed in these same patent applications. […] The ligands were used at EC80 concentration levels. The list of bitter ligands utilized and the tested ligand concentrations are contained in Table 5 of this example.

hT2R55 = assay: hT2R panel inhibition, transient HEK293 G16g44, agonist Cinchonine 150 μM; format: cell-based, human; settings: compound at 25 μM; receptor activated to EC80 with the corresponding agonist
How it was run: as §1

hT2R16 = hT2R16 (Homo sapiens (Human), UniProt Q9NYV7); assay: hT2R panel inhibition, transient HEK293 G16g44, agonist Salicin 1 mM; format: cell-based; settings: HEK293, compound at 25 μM; receptor activated to EC80 with the corresponding agonist; read-out: screening result against bitter receptor 16
Sequence of hT2R16 (Q9NYV7 whole entry): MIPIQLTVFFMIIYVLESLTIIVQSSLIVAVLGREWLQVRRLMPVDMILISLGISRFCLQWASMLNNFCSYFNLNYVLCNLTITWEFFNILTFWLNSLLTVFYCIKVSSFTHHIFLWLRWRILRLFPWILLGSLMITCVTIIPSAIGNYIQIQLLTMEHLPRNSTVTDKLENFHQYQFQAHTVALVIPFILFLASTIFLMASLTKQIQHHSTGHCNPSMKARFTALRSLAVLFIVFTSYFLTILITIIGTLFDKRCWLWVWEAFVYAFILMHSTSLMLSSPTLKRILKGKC
How it was run: as §1

hT2R61 = hT2R61 (Homo sapiens (Human), UniProt P59537); assay: hT2R panel inhibition, transient HEK293 G16g44, agonist Aristolochic Acid 25 nM; format: cell-based; settings: HEK293, compound at 25 μM; receptor activated to EC80 with the corresponding agonist; read-out: screening result against bitter receptor 61
Sequence of hT2R61 (P59537 whole entry): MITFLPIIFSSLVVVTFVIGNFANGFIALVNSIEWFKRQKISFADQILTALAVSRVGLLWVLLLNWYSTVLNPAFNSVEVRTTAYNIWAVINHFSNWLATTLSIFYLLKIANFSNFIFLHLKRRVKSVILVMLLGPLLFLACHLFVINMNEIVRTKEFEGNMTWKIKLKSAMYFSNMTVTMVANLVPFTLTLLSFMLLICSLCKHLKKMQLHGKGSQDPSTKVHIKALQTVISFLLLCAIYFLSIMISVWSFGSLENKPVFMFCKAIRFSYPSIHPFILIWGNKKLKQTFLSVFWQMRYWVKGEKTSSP
How it was run: as §1

hT2R14 [1] = biological target: T1, hT2R14 (Homo sapiens (Human), UniProt Q9NYV8); assay: hT2R panel inhibition, transient HEK293 G16g44, agonist Aristolochic Acid 2 μM; format: cell-based; settings: HEK293, compound at 25 μM; receptor activated to EC80 with the corresponding agonist; read-out: screening result against bitter receptor 14
T1 sequence (Q9NYV8 whole entry): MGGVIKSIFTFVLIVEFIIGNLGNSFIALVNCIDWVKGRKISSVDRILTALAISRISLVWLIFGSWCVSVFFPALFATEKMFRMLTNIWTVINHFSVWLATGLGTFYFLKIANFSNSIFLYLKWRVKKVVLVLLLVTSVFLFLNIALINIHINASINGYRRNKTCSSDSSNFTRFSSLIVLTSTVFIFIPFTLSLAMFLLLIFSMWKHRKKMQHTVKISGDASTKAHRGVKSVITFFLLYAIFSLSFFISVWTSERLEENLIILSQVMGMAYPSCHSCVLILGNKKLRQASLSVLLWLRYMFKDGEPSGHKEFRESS
How it was run: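 Each hT2R was transiently transfected into HEK293 cells stably expressing G16g44 and assayed functionally for inhibition of agonist response. Agonists were applied at EC80: andrographolide at 0.5 mM for hT2R8 and aristolochic acid at 2 μM for hT2R14.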

hT2R75 = hT2R75 (Homo sapiens (Human), UniProt P59540); assay: hT2R panel inhibition, transient HEK293 G16g44, agonist Strychnine 1 μM; format: cell-based; settings: HEK293, read-out: screening result against bitter receptor 75, compound at 25 μM; receptor activated to EC80 with the corresponding agonist
Sequence of hT2R75 (P59540 whole entry): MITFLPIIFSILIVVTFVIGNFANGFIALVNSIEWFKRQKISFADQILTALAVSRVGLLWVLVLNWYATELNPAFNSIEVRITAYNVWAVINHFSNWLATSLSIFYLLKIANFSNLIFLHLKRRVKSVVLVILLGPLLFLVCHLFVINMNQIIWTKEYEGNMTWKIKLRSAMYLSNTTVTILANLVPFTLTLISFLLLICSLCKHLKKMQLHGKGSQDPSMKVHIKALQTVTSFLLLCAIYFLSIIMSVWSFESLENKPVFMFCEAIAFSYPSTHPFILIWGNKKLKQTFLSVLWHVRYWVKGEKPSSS

hT2R67 = assay: hT2R panel inhibition, transient HEK293 G16g44, agonist Andrographolide 5 μM; format: cell-based, human; settings: compound at 25 μM; receptor activated to EC80 with the corresponding agonist
How it was run: as §1

hT2R10 = hT2R10 (Homo sapiens (Human), UniProt Q9NYW0); assay: hT2R panel inhibition, transient HEK293 G16g44, agonist Strychnine 50 μM; format: cell-based; settings: HEK293, read-out: screening result against bitter receptor 10, compound at 25 μM; receptor activated to EC80 with the corresponding agonist
Sequence of hT2R10 (Q9NYW0 whole entry): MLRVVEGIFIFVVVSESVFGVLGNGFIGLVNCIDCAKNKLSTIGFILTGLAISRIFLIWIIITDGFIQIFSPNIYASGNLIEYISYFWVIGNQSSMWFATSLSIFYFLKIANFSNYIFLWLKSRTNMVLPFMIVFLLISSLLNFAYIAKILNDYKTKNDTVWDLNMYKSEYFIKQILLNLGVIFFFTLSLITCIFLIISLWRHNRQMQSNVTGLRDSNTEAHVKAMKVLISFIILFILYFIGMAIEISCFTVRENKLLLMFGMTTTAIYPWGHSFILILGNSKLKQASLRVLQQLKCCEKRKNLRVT

hT2R65 = assay: hT2R panel inhibition, transient HEK293 G16g44, agonist Oleuropein 1 mM; format: cell-based, human; settings: compound at 25 μM; receptor activated to EC80 with the corresponding agonist
How it was run: as §1

hT2R51 = hT2R51 (Homo sapiens (Human), UniProt P59533); assay: hT2R panel inhibition, transient HEK293 G16g44, agonist Prop 2.5 μM; format: cell-based; settings: HEK293, compound at 25 μM; receptor activated to EC80 with the corresponding agonist; read-out: screening result against bitter receptor 51
Sequence of hT2R51 (P59533 whole entry): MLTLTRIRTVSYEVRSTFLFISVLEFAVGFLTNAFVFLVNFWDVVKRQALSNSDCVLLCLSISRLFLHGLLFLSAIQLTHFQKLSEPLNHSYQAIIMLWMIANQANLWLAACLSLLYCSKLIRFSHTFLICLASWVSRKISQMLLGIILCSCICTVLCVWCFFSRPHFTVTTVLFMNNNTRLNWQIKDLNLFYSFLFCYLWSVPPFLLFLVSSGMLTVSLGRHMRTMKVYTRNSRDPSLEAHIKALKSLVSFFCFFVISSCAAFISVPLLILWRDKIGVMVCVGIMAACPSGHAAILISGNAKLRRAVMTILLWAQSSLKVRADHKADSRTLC
How it was run: as §1

hT2R7 = hT2R7 (Homo sapiens (Human), UniProt Q9NYW3); assay: hT2R panel inhibition, transient HEK293 G16g44, agonist Chloroquine pH6.5 10 mM; format: cell-based; settings: HEK293, compound at 25 μM; receptor activated to EC80 with the corresponding agonist; read-out: screening result against bitter receptor 7
Sequence of hT2R7 (Q9NYW3 whole entry): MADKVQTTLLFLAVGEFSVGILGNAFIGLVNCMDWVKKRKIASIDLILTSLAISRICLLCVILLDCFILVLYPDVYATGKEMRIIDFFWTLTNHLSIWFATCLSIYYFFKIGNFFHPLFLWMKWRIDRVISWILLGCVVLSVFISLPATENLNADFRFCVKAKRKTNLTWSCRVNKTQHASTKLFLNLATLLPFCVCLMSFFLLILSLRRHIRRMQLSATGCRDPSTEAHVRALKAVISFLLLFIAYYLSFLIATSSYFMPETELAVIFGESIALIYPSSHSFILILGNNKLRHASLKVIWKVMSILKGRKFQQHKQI
How it was run: as §1

hT2R71 = hT2R71 (Homo sapiens (Human), UniProt P59536); assay: hT2R panel inhibition, transient HEK293 G16g44, agonist Picric Acid 10 μM; format: cell-based; settings: HEK293, compound at 25 μM; receptor activated to EC80 with the corresponding agonist; read-out: screening result against bitter receptor 71
Sequence of hT2R71 (P59536 whole entry): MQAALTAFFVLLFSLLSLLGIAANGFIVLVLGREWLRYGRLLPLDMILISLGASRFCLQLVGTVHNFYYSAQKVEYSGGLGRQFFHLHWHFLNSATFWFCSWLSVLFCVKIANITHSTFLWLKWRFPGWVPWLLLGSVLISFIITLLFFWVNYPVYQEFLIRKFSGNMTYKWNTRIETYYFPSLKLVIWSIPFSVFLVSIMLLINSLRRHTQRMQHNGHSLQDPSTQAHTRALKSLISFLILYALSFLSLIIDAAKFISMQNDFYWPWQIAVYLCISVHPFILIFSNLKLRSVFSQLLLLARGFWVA
How it was run: as §1

hT2R13 = hT2R13 (Homo sapiens (Human), UniProt Q9NYV9); assay: hT2R panel inhibition, transient HEK293 G16g44, agonist Oxyphenonium 1 mM; format: cell-based; settings: HEK293, compound at 25 μM; receptor activated to EC80 with the corresponding agonist; read-out: screening result against bitter receptor 13
Sequence of hT2R13 (Q9NYV9 whole entry): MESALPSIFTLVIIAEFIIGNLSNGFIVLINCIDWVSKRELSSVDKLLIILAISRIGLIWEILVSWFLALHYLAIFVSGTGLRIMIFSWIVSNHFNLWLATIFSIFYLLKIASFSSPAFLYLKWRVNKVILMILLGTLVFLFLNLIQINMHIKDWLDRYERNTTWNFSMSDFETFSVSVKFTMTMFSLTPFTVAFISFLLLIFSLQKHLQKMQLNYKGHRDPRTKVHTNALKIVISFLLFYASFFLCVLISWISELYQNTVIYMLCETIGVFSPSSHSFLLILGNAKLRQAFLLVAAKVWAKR
How it was run: as §1

hT2R14 [2] = biological target: T1, hT2R14; assay: hT2R14 antagonist high-throughput FLIPR assay, stable cell line with G16g44, agonist aristolochic acid; format: cell-based; settings: read-out: IC50 on hT2R14 bitter receptor
How it was run: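 HEK293 cells stably expressing hT2R14 with chimeric G16g44 were stimulated with aristolochic acid (3 μM), giving 70-80% of maximal receptor activity. Test compounds were added together with the agonist, and antagonism was read as fluorescent calcium signal on FLIPR.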

| Structure (SMILES) | screening result against bitter receptor 63 (hT2R63) | inhibition at 25 µM (hT2R5) [%] | inhibition at 25 µM (hT2R64) [%] | inhibition at 25 µM (hT2R9) [%] | screening result against bitter receptor 44 (hT2R44) | screening result against bitter receptor 54 (hT2R54) | inhibition at 25 µM (hT2R3) [%] | inhibition at 25 µM (hT2R8) [%] | screening result against bitter receptor 55 (hT2R55) | inhibition at 25 µM (hT2R16) [%] | inhibition at 25 µM (hT2R61) [%] | inhibition at 25 µM (hT2R14 [1]) [%] | inhibition at 25 µM (hT2R75) [%] | screening result against bitter receptor 67 (hT2R67) | inhibition at 25 µM (hT2R10) [%] | screening result against bitter receptor 65 (hT2R65) | inhibition at 25 µM (hT2R51) [%] | inhibition at 25 µM (hT2R7) [%] | inhibition at 25 µM (hT2R71) [%] | further results |
| --- | --- | --- | --- | --- | --- | --- | --- | --- | --- | --- | --- | --- | --- | --- | --- | --- | --- | --- | --- | --- |
| COc1ccc(CN(Cc2ccccc2C)S(=O)(=O)c2ccc(C(=O)O)cc2)cc1 [Example 5-64, 4-(N-(4-methoxybenzyl)-N-(2-methylbenzyl)sulfamoyl)benzoic acid] | + (20% to 40% inhibition = +) | 20 to 40 | 20 to 40 | 20 to 40 | + (20% to 40% inhibition = +) | + (20% to 40% inhibition = +) | 20 to 40 | 20 to 40 |  |  |  |  |  |  |  |  |  |  |  |  |
| Cc1ccc(CN(Cc2ccccc2)S(=O)(=O)c2ccc(C(=O)O)cc2)cc1 [Example 5-70, 4-(N-benzyl-N-(4-methylbenzyl)sulfamoyl)benzoic acid] | ++++ (80% or greater inhibition = ++++) | 40 to 60 | 20 to 40 |  | + (20% to 40% inhibition = +) | ++ (40% to 60% inhibition = ++) | 40 to 60 | 20 to 40 | +++ (60% to 80% inhibition = +++) | 40 to 60 | 40 to 60 | 60 to 80 | 20 to 40 | + (20% to 40% inhibition = +) | 40 to 60 | ++ (40% to 60% inhibition = ++) | 40 to 60 | 20 to 40 | 40 to 60 |  |
| COc1ccc(CN(Cc2cccc(Cl)c2)S(=O)(=O)c2ccc(C(=O)O)cc2)cc1 [Example 5-14, 4-(N-(3-chlorobenzyl)-N-(4-methoxybenzyl)sulfamoyl)benzoic acid] | ++++ (80% or greater inhibition = ++++) | 60 to 80 | > 80 | 40 to 60 | +++ (60% to 80% inhibition = +++) | ++++ (80% or greater inhibition = ++++) | > 80 | 20 to 40 | ++++ (80% or greater inhibition = ++++) | 60 to 80 | > 80 | > 80 | 40 to 60 | ++ (40% to 60% inhibition = ++) | > 80 | ++++ (80% or greater inhibition = ++++) | 60 to 80 | 60 to 80 | > 80 | inhibition at 25 µM (hT2R13): 20 to 40%; pIC50 (hT2R14 [2]): 5.73 |

From patent US9247759B2, “Identification of human T2R receptors that respond to bitter compounds that elicit the bitter taste in compositions, and the use thereof in assays to identify compounds that inhibit (block) bitter taste in compositions and use thereof” (SENOMYX, INC., priority 2007, dated 2016)
